Measurements published in patent US20220296595A1, “CDK INHIBITORS” (QILU REGOR THERAPEUTICS INC., priority 2019, published 2022).
Where two headings read alike, the source gives them in different places.

Assays:
CDK4/CyclinD1 = target: T1, CDK4/CyclinD1 (Homo sapiens, UniProt P11802); test: Assay for inhibition of CDK4/CyclinD1 (Caliper microfluidic kinase assay); assay type: biochemical
T1 construct: purchased Thermofisher PR8064A
How it was run: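 Caliper microfluidic mobility-shift assay tracking phosphorylation of 1 μM FL-34 peptide by 1 nM CDK4/CyclinD1 with 200 μM ATP in HEPES pH 7.5 buffer with 10 mM MgCl2. Reaction ran 3 h at room temperature, was stopped with EDTA, and IC50 came from a 4-parameter sigmoidal fit.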

[1] = test system: phosphorylation of Retinoblastoma Protein (pRb Ser807/811 or Ser780) in T47D cells; test: Inhibition of phosphorylation of retinoblastoma protein (pRb) in T47D cell (ELISA); assay type: cell-based, human; conditions: Homo sapiens, T47D, read-out: Phospho T47D Ser807 IC50, pRb Ser807 phosphorylation, T47D cells
How it was run: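 T47D cells in RPMI 1640 + 10% FBS, adhered overnight, then treated 24 h with 3-fold compound titrations (top concentration […]). Lysates assayed by sandwich ELISA for pRb Ser807/811 or Ser780 with HRP/TMB detection. IC50 from 4-parameter sigmoidal fit.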

T47D breast cancer cells = test: Anti-proliferation assay in T47D cell (Cyquant, day 6); assay type: cell-based, human; conditions: Homo sapiens, T47D, anti-proliferation, T47D cells; read-out: T47D IC50
How it was run: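 Cells were grown in RPMI 1640 with 10% FBS at 37 °C and dosed the day after plating at ten concentrations, 10 μM to 0.51 nM in 3-fold steps. CyQuant fluorescence (ex 485/em 535 nm) was read on day 6. IC50 was fitted from baseline-subtracted viability curves, with the baseline read after overnight culture.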

CDK2/CyclinE1 = target: T2, CDK2/CyclinE1 (Homo sapiens, UniProt P24941); test: Assay for inhibition of CDK2/CyclinE1 (Caliper microfluidic kinase assay); assay type: biochemical; conditions: read-out: CDK2 IC50
T2 construct: purchased SignalChem C29-18G
How it was run: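 Caliper microfluidic mobility-shift assay: 5 nM CDK2/CyclinE1, 100 μM ATP, 5 μM FL-18 peptide (5-FAM-QSPKKG-NH2) in pH 7.5 HEPES buffer with MgCl2, DTT, BSA, Triton X-100. Incubated 3 hours at room temperature, EDTA-stopped; IC50 from 4-parameter sigmoidal fit.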

CDK6/CyclinD3 = target: T3, CDK6/CyclinD3 (Homo sapiens, UniProt Q00534); test: Assay for inhibition of CDK6/CyclinD3 (Caliper microfluidic kinase assay); assay type: biochemical
T3 construct: purchased Carna 04-107
T3 sequence (Q00534 whole entry): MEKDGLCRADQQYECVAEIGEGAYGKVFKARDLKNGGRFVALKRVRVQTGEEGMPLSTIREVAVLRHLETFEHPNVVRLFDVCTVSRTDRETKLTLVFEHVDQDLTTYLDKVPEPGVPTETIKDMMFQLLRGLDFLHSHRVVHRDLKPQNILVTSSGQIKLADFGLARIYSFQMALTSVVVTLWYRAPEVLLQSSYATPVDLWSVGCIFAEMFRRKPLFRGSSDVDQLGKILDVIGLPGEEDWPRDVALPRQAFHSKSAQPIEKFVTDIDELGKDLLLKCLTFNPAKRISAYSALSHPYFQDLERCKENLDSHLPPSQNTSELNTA
T3 sequence (P30281 whole entry partner): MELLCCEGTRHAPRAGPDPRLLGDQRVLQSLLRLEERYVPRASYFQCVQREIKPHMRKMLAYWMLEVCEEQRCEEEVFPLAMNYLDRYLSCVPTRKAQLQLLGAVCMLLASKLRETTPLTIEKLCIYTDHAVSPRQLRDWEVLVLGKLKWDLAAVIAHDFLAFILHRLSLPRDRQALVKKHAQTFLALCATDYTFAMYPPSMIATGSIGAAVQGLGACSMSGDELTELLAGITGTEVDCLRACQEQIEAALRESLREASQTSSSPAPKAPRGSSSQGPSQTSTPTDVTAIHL
How it was run: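 Caliper mobility-shift readout of FAM-labelled peptide (FL-34, 1 μM) phosphorylation by 2 nM CDK6/CyclinD3 at 300 μM ATP in HEPES pH 7.5 buffer with MgCl2, DTT; 3 h at room temperature, EDTA stop. IC50 from 4-parameter sigmoidal fit.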

T1 sequence (P11802 whole entry): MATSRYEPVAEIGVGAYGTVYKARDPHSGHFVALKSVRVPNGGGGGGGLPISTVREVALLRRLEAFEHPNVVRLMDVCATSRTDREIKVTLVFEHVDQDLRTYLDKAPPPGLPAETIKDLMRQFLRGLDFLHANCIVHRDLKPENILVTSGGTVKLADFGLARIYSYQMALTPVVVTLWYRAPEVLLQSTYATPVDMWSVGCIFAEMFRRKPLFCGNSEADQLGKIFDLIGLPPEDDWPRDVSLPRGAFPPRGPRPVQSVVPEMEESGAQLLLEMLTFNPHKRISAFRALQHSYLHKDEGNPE
T1 sequence (P24385 whole entry partner): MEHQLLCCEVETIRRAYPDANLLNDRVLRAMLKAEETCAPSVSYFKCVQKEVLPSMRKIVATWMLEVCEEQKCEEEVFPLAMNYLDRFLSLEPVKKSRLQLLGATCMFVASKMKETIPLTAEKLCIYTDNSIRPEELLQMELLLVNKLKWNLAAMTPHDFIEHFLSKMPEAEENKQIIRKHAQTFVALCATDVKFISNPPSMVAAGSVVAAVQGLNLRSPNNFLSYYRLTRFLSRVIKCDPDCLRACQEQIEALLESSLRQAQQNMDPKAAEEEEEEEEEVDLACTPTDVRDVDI

SMILES | IC50 (CDK4/CyclinD1; CDK4/CyclinD1, 200 μM ATP) | IC50 [1] | IC50 (T47D breast cancer cells) | IC50 (CDK2/CyclinE1; CDK2/CyclinE1, 100 μM ATP) | IC50 (CDK6/CyclinD3; CDK6/CyclinD3, 300 μM ATP) | IC50 (CDK4/CyclinD1; CDK4/CyclinD1) | IC50 (CDK2/CyclinE1; CDK2/CyclinE1) | IC50 (CDK6/CyclinD3; CDK6/CyclinD3)
CCN1CCN(c2ccc(Nc3nccc(-c4ccn5ncc(C(C)C)c5c4)n3)nc2)C(=O)C1 [compound 235] | < 10 nM | < 100 nM | < 100 nM | 10 to 100 nM | 10 to 100 nM | – | – | –
CC(C)c1cnn2ccc(-c3ccnc(Nc4ccc(N5CCN(S(C)(=O)=O)CCC5=O)cn4)n3)cc12 [compound 236] | < 10 nM | < 100 nM | < 100 nM | 10 to 100 nM | < 10 nM | – | – | –
CC(C)c1cnn2ccc(-c3ccnc(Nc4ccc(N5CCN(CCO)CC5=O)cn4)n3)cc12 [compound 237] | < 10 nM | < 100 nM | < 100 nM | 10 to 100 nM | 10 to 100 nM | – | – | –
CC(C)n1cnc2c1CN(c1ccnc(Nc3ccc(N4CCCNC4=O)cn3)n1)CC2 [compound 242] | < 10 nM | < 100 nM | 500 to 1000 nM | 100 to 1000 nM | 10 to 100 nM | – | – | –
CC(C)n1cnc2c1CN(c1ccnc(Nc3ccc(N4CCC(C)(N)CC4=O)cn3)n1)CC2 (stereo not drawn) [compound 244] | < 10 nM | 500 to 1000 nM | 500 to 1000 nM | 10 to 100 nM | 100 to 1000 nM | – | – | –
CC(C)n1cnc2c1CN(c1ccnc(Nc3ccc(N4CCC(N(C)C)CC4=O)cn3)n1)CC2 (stereo not drawn) [compound 245] | < 10 nM | 100 to 500 nM | 500 to 1000 nM | 10 to 100 nM | 100 to 1000 nM | – | – | –
CC1(N)CCN(c2ccc(Nc3nccc(-c4cc(F)c5c(c4)C(C)(C)CO5)n3)nc2)C(=O)C1 (stereo not drawn) [compound 258] | < 10 nM | < 100 nM | < 100 nM | 10 to 100 nM | 10 to 100 nM | – | – | –
CN(C)C1CCN(c2ccc(Nc3nccc(-c4cc(F)c5c(c4)C(C)(C)CO5)n3)nc2)C(=O)C1 (stereo not drawn) [compound 259] | < 10 nM | < 100 nM | < 100 nM | 10 to 100 nM | 10 to 100 nM | – | – | –
CC(C)n1cnc2c(F)nc(-c3ccnc(Nc4ccc(N5CCC(N(C)C)CC5=O)cn4)n3)cc21 (stereo not drawn) [compound 270] | < 10 nM | < 100 nM | < 100 nM | 10 to 100 nM | < 10 nM | – | – | –
CC(C)n1cnc2c(F)nc(-c3ccnc(Nc4ccc(N5CC6CC5CN6)cn4)n3)cc21 (stereo not drawn) [compound 272] | < 10 nM | < 100 nM | < 100 nM | 100 to 1000 nM | 10 to 100 nM | – | – | –
CC(C)n1cnc2c(F)nc(-c3ccnc(Nc4ccc(N5CCNCC5=O)cn4)n3)cc21 [compound 273] | < 10 nM | < 100 nM | < 100 nM | 10 to 100 nM | 10 to 100 nM | – | – | –
Cc1nc2c(F)nc(-c3ccnc(Nc4ccc(N5CCNCC5=O)cn4)n3)cc2n1C(C)C [compound 276] | < 10 nM | < 100 nM | < 100 nM | 10 to 100 nM | < 10 nM | – | – | –
CC(C)n1cnc2c(F)nc(-c3nc(Nc4ccc(N5CCC(N(C)C)CC5=O)cn4)ncc3Cl)cc21 (stereo not drawn) [compound 278] | < 10 nM | < 100 nM | < 100 nM | 100 to 1000 nM | 10 to 100 nM | – | – | –
Cc1cnc(Nc2ccc(N3CCC(N(C)C)CC3=O)cn2)nc1-c1cc2c(ncn2C(C)C)c(F)n1 (stereo not drawn) [compound 279] | < 10 nM | < 100 nM | < 100 nM | 100 to 1000 nM | 10 to 100 nM | – | – | –
CC(C)n1cnc2c(F)nc(-c3ccnc(Nc4ccc(N5CCC(C)(N)CC5=O)cc4)n3)cc21 (stereo not drawn) [compound 280] | < 10 nM | < 100 nM | < 100 nM | < 10 nM | < 10 nM | – | – | –
CC(C)n1cnc2c(F)nc(-c3ccnc(Nc4ccc(N5CCC(N(C)C)CC5=O)cc4)n3)cc21 (stereo not drawn) [compound 281] | < 10 nM | < 100 nM | < 100 nM | < 10 nM | < 10 nM | – | – | –
CC(C)n1cnc2c(F)nc(-c3ccnc(Nc4ccc(N5CCCNC5=O)cc4)n3)cc21 [compound 282] | < 10 nM | < 100 nM | < 100 nM | < 10 nM | < 10 nM | – | – | –
CC(C)n1cnc2c(F)nc(-c3ccnc(Nc4ccc(N5CCCC(N(C)C)C5=O)cn4)n3)cc21 (stereo not drawn) [compound 283] | < 10 nM | < 100 nM | < 100 nM | > 1000 nM | < 10 nM | – | – | –
CCN1CCN(Cc2ccc(Nc3nccc(-c4cc5c(ncn5C(C)C)c(F)n4)n3)nc2)CC1 [compound 285] | < 10 nM | < 100 nM | < 100 nM | > 1000 nM | 10 to 100 nM | – | – | –
CC(C)n1cnc2c(F)nc(-c3ccnc(Nc4ccc(N5CCNCC5)cn4)n3)cc21 [compound 286] | < 10 nM | < 100 nM | < 100 nM | 100 to 1000 nM | 10 to 100 nM | – | – | –
CC(C)n1cnc2c(F)nc(-c3ccnc(Nc4ccc(N5CCCC(N)C5=O)cc4)n3)cc21 (stereo not drawn) [compound 293] | < 10 nM | < 100 nM | < 100 nM | 10 to 100 nM | < 10 nM | – | – | –
CCN1CC2CC1CN2c1ccc(Nc2nccc(-c3cc4c(ncn4C(C)C)c(OC)n3)n2)nc1 (stereo not drawn) [compound 312] | – | < 100 nM | 100 to 500 nM | – | – | < 10 nM | > 1000 nM | 10 to 100 nM
COc1nc(-c2ccnc(Nc3ccc(N4CCC(N5CCC5)CC4=O)cn3)n2)cc2c1ncn2C(C)C (stereo not drawn) [compound 314] | – | < 100 nM | < 100 nM | – | – | < 10 nM | 10 to 100 nM | 10 to 100 nM
COc1nc(-c2ccnc(Nc3ccc(N4CCC(N5CC(F)(F)C5)CC4=O)cn3)n2)cc2c1ncn2C(C)C (stereo not drawn) [compound 315] | – | < 100 nM | 100 to 500 nM | – | – | < 10 nM | 100 to 1000 nM | 10 to 100 nM
